# Read-outs that look alike come from different tables or passages of the source.
# Tests used:
# [1] = molecular target: T1, recombinantly expressed His-tagged protein corresponding to amino acids 575-869 of human Tyk2 (Homo sapiens, UniProt P29597); experiment: Probe displacement assay (scintillation proximity, radiolabeled probe); type: binding; details: 2.5 nM Tyk2 (575-869), 40 nM [3H] probe, 30 minutes at room temperature
# T1 construct: made in house
# Protocol: The preparation of radiolabeled probe, (R)—N-(1-(3-(8-methyl-5-(methylamino)-8H-imidazo[4,5-d]thiazolo[5,4-b]pyridin-2-yl)phenyl)ethyl)-2-([^3H]methylsulfonyl)benzamide, was performed as described below: […]
# [2] = test system: Kit225 T cells with STAT-dependent luciferase reporter stimulated with human recombinant IL-23; experiment: Kit225 T cell assay, IL-23 stimulated STAT-dependent luciferase reporter; type: cell-based
# Protocol: (§1) Kit225 T cells with a stably-integrated STAT-dependent luciferase reporter were plated in RPMI (Gibco) containing 10% heat-inactivated FBS (Gibco) and 100 U/mL PenStrep (Gibco). The cells were then stimulated with either 20 ng/mL human recombinant IL-23 or 200 U/mL human recombinant IFNα (PBL InterferonSource) for 5-6 hours. Luciferase expression was measured using the STEADY-GLO® Luciferase Assay System (Promega) according to the manufacturer's instructions.
# [3] = test system: Kit225 T cells with STAT-dependent luciferase reporter stimulated with human recombinant IFNα; experiment: Kit225 T cell assay, IFNα stimulated STAT-dependent luciferase reporter; type: cell-based
# Protocol: as §1
# [4] = KIT225, 20 ng/mL human recombinant IL-23, 5-6 hours, luciferase, read-out: IL-23 Kit225 Reporter, LE (IC50)
# [5] = KIT225, 200 U/mL human recombinant IFNα, 5-6 hours, luciferase, read-out: IFNa Kit225 Reporter, LE (IC50)
# [6] = Homo sapiens, KIT225, read-out: IL-23 Kit225 Reporter, LE (IC50, μM)
# [7] = Homo sapiens, KIT225, read-out: IFNa Kit225 Reporter, LE (IC50, μM)
# T1 sequence (P29597 with tags, fused parts or gaps): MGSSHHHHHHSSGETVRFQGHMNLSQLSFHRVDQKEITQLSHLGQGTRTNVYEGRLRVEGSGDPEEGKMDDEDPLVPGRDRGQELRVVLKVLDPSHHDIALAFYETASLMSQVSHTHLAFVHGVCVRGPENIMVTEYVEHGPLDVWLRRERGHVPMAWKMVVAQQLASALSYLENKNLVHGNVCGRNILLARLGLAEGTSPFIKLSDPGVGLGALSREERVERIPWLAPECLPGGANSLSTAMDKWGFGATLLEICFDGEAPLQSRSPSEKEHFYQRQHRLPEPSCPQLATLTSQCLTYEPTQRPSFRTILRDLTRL
Compound,EC50 [1] [nM],"IC50 [2, 4] [µM]","IC50 [3, 5] [µM]","IC50 [2, 6] [µM]","IC50 [3, 7] [µM]"
CNC(=O)c1cnc(NC(=O)C2CCCc3ccccc32)cc1Nc1ccccc1S(C)(=O)=O (stereo not shown) [Example 9],940,–,–,13.3,2.56
CNC(=O)c1cnc(NC(C)=O)cc1Nc1ccc(F)c(F)c1OC [Example 24],420,11.2,7.24,–,–
CNC(=O)c1cnc(NC(=O)C2CC2)cc1Nc1ccc(F)c(F)c1OC [Example 25],40,0.23,0.1,–,–
CNC(=O)c1cnc(NC(=O)Nc2ccccc2)cc1Nc1ccccc1S(C)(=O)=O [Example 27],290,–,–,3.17,3.06
CNC(=O)c1cnc(NC(=O)C2CC2)cc1Nc1cccc(-c2nnc(C)o2)c1OC [Example 28],10,0.07,0.04,–,–
CNC(=O)c1cnc(NC(=O)C2CC2)cc1Nc1cccc(-c2nnc[nH]2)c1OC [Example 29],5.46,0.02,0.03,–,–
CNC(=O)c1cnc(NC(=O)C2CC2)cc1Nc1cccc(-c2ncn(C)n2)c1OC [Example 30],6.17,0.03,0.01,–,–
[2H]C([2H])([2H])NC(=O)c1cnc(NC(=O)C2CC2)cc1Nc1cccc(-c2ncn(C)n2)c1OC [Example 31],3.81,0.00478,0.01,–,–
CNC(=O)c1cnc(NC(=O)C2CC2)cc1Nc1cccc(-c2ccn(C)n2)c1OC [Example 32],1.63,0.00731,0.00705,–,–
CNC(=O)c1cnc(NC(=O)C2CC2)cc1Nc1cccc(-c2ccnn2C)c1OC [Example 33],5.34,0.11,0.09,–,–
[2H]C([2H])([2H])NC(=O)c1cnc(NC(=O)C2CC2)cc1Nc1cccc(-c2ccn(C)n2)c1OC [Example 34],6.42,0.02,0.00873,–,–
[2H]C([2H])([2H])NC(=O)c1cnc(NC(=O)C2CC2)cc1Nc1cccc(-c2ccnn2C)c1OC [Example 35],40,0.06,0.28,–,–
[2H]C([2H])([2H])NC(=O)c1cnc(NC(=O)C2CC2)cc1Nc1cccc(-c2ccn(CC(F)F)n2)c1OC [Example 36],4.2,0.1,0.04,–,–
[2H]C([2H])([2H])NC(=O)c1cnc(NC(=O)C2CC2)cc1Nc1cccc(-c2ccn(CC)n2)c1OC [Example 37],3.52,0.12,0.07,–,–
[2H]C([2H])([2H])NC(=O)c1cnc(NC(=O)C2CC2)cc1Nc1cccc(-c2ccnn2CC)c1OC [Example 38],160,1.52,1.66,–,–
[2H]C([2H])([2H])NC(=O)c1cnc(NC(=O)C2CC2)cc1Nc1cccc(-c2ccn(CC(F)(F)F)n2)c1OC [Example 39],20,–,–,0.08,0.16
[2H]C([2H])([2H])NC(=O)c1cnc(NC(=O)C2CC2)cc1Nc1cccc(-c2ccn(CC(C)(C)O)n2)c1OC [Example 40],3.86,0.17,0.16,–,–
[2H]C([2H])([2H])NC(=O)c1cnc(NC(=O)C2CC2)cc1Nc1cccc(-c2ccn(CCC#N)n2)c1OC [Example 41],2.74,–,–,0.19,0.09
CNC(=O)c1cnc(NC(=O)C2CC2)cc1Nc1cccc(-c2cnn(C)c2)c1OC [Example 42],7.19,0.05,0.02,–,–
[2H]C([2H])([2H])NC(=O)c1cnc(NC(=O)C2CC2)cc1Nc1cccc(-c2cnn(C)c2)c1OC [Example 43],2.54,0.06,0.02,–,–
[2H]C([2H])([2H])NC(=O)c1cnc(NC(=O)C2CC2)cc1Nc1cccc(-c2nnn(C)n2)c1OC [Example 44],–,0.00229,0.00117,–,–
[2H]C([2H])([2H])NC(=O)c1cnc(NC(=O)C2CC2)cc1Nc1cccc(-c2csc(C)n2)c1OC [Example 45],5.56,0.01,0.01,–,–
[2H]C([2H])([2H])NC(=O)c1cnc(NC(=O)C2CC2)cc1Nc1cccc(-c2ncc(F)cn2)c1OC [Example 46],–,0.022,0.013,–,–

# Further lines, with some results ahead:
EC50 [1] [nM],"IC50 [2, 4] [µM]","IC50 [3, 5] [µM]",Compound,"IC50 [2, 6] [µM]","IC50 [3, 7] [µM]"
20,0.3,0.24,CNC(=O)c1cnc(NC(=O)C2CC2)cc1Nc1ccccc1S(C)(=O)=O [Example 1],–,–
430,7.06,12.5,CNC(=O)c1cnc(NC(C)=O)cc1Nc1ccccc1S(C)(=O)=O [Example 2],–,–
830,6.52,12.5,CNC(=O)c1cnc(NC(=O)[C@@H]2CCCO2)cc1Nc1ccccc1S(C)(=O)=O [Example 3],–,–
760,2.09,12.5,CNC(=O)c1cnc(NC(=O)C2CCOCC2)cc1Nc1ccccc1S(C)(=O)=O [Example 4],–,–
800,1.88,8.93,CNC(=O)c1cnc(NC(=O)C2CCCCC2)cc1Nc1ccccc1S(C)(=O)=O [Example 5],–,–
120,1.16,1.11,CNC(=O)c1cnc(NC(=O)Cc2ccccc2)cc1Nc1ccccc1S(C)(=O)=O [Example 6],–,–
460,0.4,4.21,CNC(=O)c1cnc(NC(=O)C(C)C)cc1Nc1ccccc1S(C)(=O)=O [Example 7],–,–
250,4.68,1,CNC(=O)c1cnc(NC(=O)[C@H]2CC2(C)C)cc1Nc1ccccc1S(C)(=O)=O [Example 8],–,–
380,4.55,6.03,CNC(=O)c1cnc(NC(=O)Cc2ccccn2)cc1Nc1ccccc1S(C)(=O)=O [Example 10],–,–
240,2.95,2.49,CCCC(=O)Nc1cc(Nc2ccccc2S(C)(=O)=O)c(C(=O)NC)cn1 [Example 11],–,–
230,4.42,0.58,CNC(=O)c1cnc(NC(=O)Cc2ccc(OC)cc2)cc1Nc1ccccc1S(C)(=O)=O [Example 12],–,–
170,3.15,0.87,CNC(=O)c1cnc(NC(=O)C2CCC2)cc1Nc1ccccc1S(C)(=O)=O [Example 14],–,–
50,0.69,0.34,CNC(=O)c1cnc(NC(=O)C2CC2)cc1Nc1ccc(F)cc1S(C)(=O)=O [Example 15],–,–
90,12.5,3.37,CCNC(=O)Nc1cc(Nc2ccccc2S(C)(=O)=O)c(C(=O)NC)cn1 [Example 16],–,–
200,11.4,9.54,CNC(=O)Nc1cc(Nc2ccccc2S(C)(=O)=O)c(C(=O)NC)cn1 [Example 17],–,–
540,6.61,9.91,CNC(=O)c1cnc(NC(=O)C2CC2)cc1Nc1cccc(F)c1S(C)(=O)=O [Example 18],–,–
720,5.69,8.51,CNC(=O)c1cnc(NC(=O)C2CC2)cc1Nc1ccccc1C(C)(C)O [Example 19],–,–
150,1.44,1.2,CNC(=O)c1cnc(NC(=O)C2CC2)cc1Nc1cc(F)ccc1S(C)(=O)=O [Example 20],–,–
140,2.26,1.85,CNC(=O)c1cnc(NC(=O)C2CC2(F)F)cc1Nc1ccccc1S(C)(=O)=O (stereo not shown) [Example 21],–,–
80,2.12,1.24,CNC(=O)c1cnc(NC(=O)C2CC2F)cc1Nc1ccccc1S(C)(=O)=O (stereo not shown) [Example 22],–,–
1020,12.5,3.89,CNC(=O)c1cnc(NC(=O)COC)cc1Nc1ccc(F)c(F)c1OC [Example 23],–,–

# From patent publication US9987266B2, “Alkyl-amide-substituted pyridyl compounds useful as modulators of IL-12, IL-23 and/or IFNα responses” (BRISTOL-MYERS SQUIBB COMPANY, priority 2013, dated 2018)
